According to publication PMC10762035, “Molecular basis of human trace amine-associated receptor 1 activation” (Nature Communications, 2024):
Where “and” joins values, the source holds several entries; their conditions need not be identical. Identical values can stand only once.

What was measured:
hTA1 [1] = molecular target: T1, hTA1 (Homo sapiens, UniProt Q96RJ0); experiment: Screen of 89 aminergic compounds at 10 µM, cAMP accumulation in HEK293T cells; assay type: cell-based; conditions: quadruplicate values; screen at 10 µM;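 also: HEK293T cells co-transfected with hTA1 and GloSensor cAMP reporter, cAMP accumulation detected by luminescence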
T1 construct: expressed in transfected cells; host or cells: HEK293T
T1 sequence (Q96RJ0 1-339): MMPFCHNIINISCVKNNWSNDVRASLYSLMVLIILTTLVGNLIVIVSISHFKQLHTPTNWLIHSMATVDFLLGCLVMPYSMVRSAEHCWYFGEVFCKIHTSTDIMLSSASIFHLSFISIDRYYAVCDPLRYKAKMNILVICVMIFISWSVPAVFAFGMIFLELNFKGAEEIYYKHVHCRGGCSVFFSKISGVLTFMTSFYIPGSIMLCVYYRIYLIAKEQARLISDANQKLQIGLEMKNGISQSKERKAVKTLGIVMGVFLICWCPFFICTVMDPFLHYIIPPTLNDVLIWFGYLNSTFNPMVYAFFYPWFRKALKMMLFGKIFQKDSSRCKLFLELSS

hTA1 [2] = molecular target: T1, hTA1; experiment: GloSensor cAMP accumulation assay, concentration response, wild-type hTA1 in transfected HEK293T cells; assay type: cell-based; conditions: log[Compound], replicate wells;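 also: luminescence read after 30 min compound exposure at room temperature in cells preloaded with D-Luciferin, reflecting Gs-driven cAMP rise, efficacy scaled to the maximal β-PEA response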

Compound: COc1ccccc1N1CCN(CCCCN2C(=O)c3ccccc3C2=O)CC1 [NAN190]
- Luminescence for Screening Data (hTA1 [1]): 6.8 and 8.1 and 6.1 and 6.2

Compound: CCCCCCCCCOc1ccc2[nH]cc(CCN)c2c1 [5-nonyloxytryptamine]
- Luminescence for Screening Data (hTA1 [1]): 10.6 and 10.3 and 13.3 and 10.2

Compound: CCN(CC)C(=O)/C(C#N)=C/c1cc(O)c(O)c([N+](=O)[O-])c1 [Entacapone]
- Luminescence for Screening Data (hTA1 [1]): 5.5 and 5.2 and 6.2 and 5.6

Compound: O=C1CCc2ccc(OCCCCN3CCN(c4cccc(Cl)c4Cl)CC3)cc2N1 [Aripiprazole]
- Luminescence for Screening Data (hTA1 [1]): 3.9 and 3.4 and 5.3 and 4.7

Compound: O=S(=O)(c1ccccc1)c1cnc2c(N3CCNCC3)cccc2c1 [SB742457]
- Luminescence for Screening Data (hTA1 [1]): 9 and 8.4 and 8.8 and 9.7

Compound: CNc1cc(OC)c(C(=O)NC2CCN(Cc3ccccc3)C2C)cc1Cl (centres unmarked) [Nemonapride]
- Luminescence for Screening Data (hTA1 [1]): 5.7 and 7.5 and 7.3 and 6.6

Compound: Fc1ccc(C(OCCN2CCN(CCCc3ccccc3)CC2)c2ccc(F)cc2)cc1 [GBR12909]
- Luminescence for Screening Data (hTA1 [1]): 4.8 and 5.2 and 6.6 and 6.2

Compound: CCCCN1CCC(COC(=O)c2cc(Cl)c(N)c3c2OCCO3)CC1 [SB204070]
- Luminescence for Screening Data (hTA1 [1]): 5.4 and 6 and 6.4

Compound: COc1cc(N)c(Cl)cc1C(=O)CCC1CCN(CCNS(C)(=O)=O)CC1.Cl [RS 67506 hydrochloride]
- Luminescence for Screening Data (hTA1 [1]): 5.6 and 9 and 4.8 and 5.5

Compound: O=C(CCCCCN1CCN(c2ccccc2-c2ccccc2)CC1)NC1CCCc2ccccc21 (centres unmarked) [LP12]
- Luminescence for Screening Data (hTA1 [1]): 5.4 and 4.7 and 7.1 and 5

Compound: CNCCC(Oc1ccc(C(F)(F)F)cc1)c1ccccc1 (centres unmarked) [Fluoxetine]
- Luminescence for Screening Data (hTA1 [1]): 8.5 and 7.5 and 8.1 and 6.5

Compound: COC(=O)[C@H]1[C@H]2C[C@@H]3c4[nH]c5cc(OC)ccc5c4CCN3C[C@H]2C[C@@H](OC(=O)c2cc(OC)c(OC)c(OC)c2)[C@@H]1OC [Reserpine]
- Luminescence for Screening Data (hTA1 [1]): 10.3 and 8.2 and 7.3 and 7.1

Compound: CN(C)CCOC1=Cc2ccccc2Sc2ccc(Cl)cc21 [zotepine]
- Luminescence for Screening Data (hTA1 [1]): 5.4 and 6.9 and 6.1 and 5.8

Compound: CN1CCN(C2=Nc3ccccc3Oc3ccc(Cl)cc32)CC1.O=C(O)CCC(=O)O [Loxapine succinate salt]
- Luminescence for Screening Data (hTA1 [1]): 5.2 and 3.9 and 5.6

Compound: CC[C@@H](CO)NC(=O)[C@@H]1C=C2c3cccc4[nH]cc(c34)C[C@H]2N(C)C1 [Methylergonovine]
- Normalized Luminescence Counts for WT hTA1 (hTA1 [2]; M = -5): 45.3336 and 42.9514 and 53.7117 and 43.7792 and 37.0624 and 36.5834
- Normalized Luminescence Counts for WT hTA1 (hTA1 [2]; M = -5.522): 17.8708 and 18.4864 and 21.6449 and 29.4218 and 29.3534 and 29.1139
- Normalized Luminescence Counts for WT hTA1 (hTA1 [2]; M = -6): 12.9992 and 11.3664 and 9.546 and 15.3039 and 15.0416 and 13.8556
- Normalized Luminescence Counts for WT hTA1 (hTA1 [2]; M = -6.522): 6.093 and 6.147 and 6.254 and 7.082 and 6.8879 and 7.207
- Normalized Luminescence Counts for WT hTA1 (hTA1 [2]; M = -7): 4.514 and 3.604 and 5.103 and 3.125 and 3.353 and 3.387
- Normalized Luminescence Counts for WT hTA1 (hTA1 [2]; M = -7.522): 2.5066 and 3.845 and 3.203 and 2.03 and 1.87 and 2.201
- Normalized Luminescence Counts for WT hTA1 (hTA1 [2]; M = -8): 2.5869 and 2.4263 and 1.489 and 1.2088 and 1.368 and 1.722
- Normalized Luminescence Counts for WT hTA1 (hTA1 [2]; M = -8.522): 1.65 and 1.864 and 0.9274 and 1.414 and 1.14 and 1.916
- Normalized Luminescence Counts for WT hTA1 (hTA1 [2]; M = -9): 0.3385 and 0.4991 and -0.009489 and 1.152 and 1.026 and 0.8895
- Normalized Luminescence Counts for WT hTA1 (hTA1 [2]; M = -9.522): -0.06302 and -0.3842 and -0.8125 and 0.7184 and 0.4676 and 0.4447
- Normalized Luminescence Counts for WT hTA1 (hTA1 [2]; M = -10): -0.08979 and -0.3039 and -0.2504 and 0.2509 and 0.1026 and 0.2167
- Normalized Luminescence Counts for WT hTA1 (hTA1 [2]; M = -10.522): -0.3039 and -0.4645 and -0.2236 and 0.05702 and 0.03421 and -0.1026
- Normalized Luminescence Counts for WT hTA1 (hTA1 [2]; M = -11): 0.09758 and -0.2772 and 0.4723 and 0.1825 and -0.1939 and 0
- Normalized Luminescence Counts for WT hTA1 (hTA1 [2]; M = -11.522): 0.4188 and 0.74 and 0.6597 and 0.2395 and 0.7298 and 0.3877
- Normalized Luminescence Counts for WT hTA1 (hTA1 [2]; M = -12): 0.5794 and 0.8471 and 0.74 and 0.3079 and 0.2281 and 0.479
- Normalized Luminescence Counts for WT hTA1 (hTA1 [2]; M = -12.522): -0.4378 and 0.6865 and 0.7668 and 0.6272 and 0.479 and 0.1026

Compound: NCCc1c[nH]c2ccc(O)cc12 [5HT]
- Normalized Luminescence Counts for WT hTA1 (hTA1 [2]; M = -5): 22.7551 and 23.5409 and 27.4699 and 21.1146 and 16.9666 and 15.5049
- Normalized Luminescence Counts for WT hTA1 (hTA1 [2]; M = -5.522): 12.7034 and 13.2601 and 13.0636 and 11.1989 and 10.4878 and 9.8162
- Normalized Luminescence Counts for WT hTA1 (hTA1 [2]; M = -6): 16.6652 and 17.3528 and 14.4388 and 9.54 and 6.932 and 6.5768
- Normalized Luminescence Counts for WT hTA1 (hTA1 [2]; M = -6.522): 9.953 and 14.2096 and 13.2928 and 9.698 and 6.261 and 7.564
- Normalized Luminescence Counts for WT hTA1 (hTA1 [2]; M = -7): 9.7567 and 9.593 and 11.8194 and 6.3 and 5.55 and 6.814
- Normalized Luminescence Counts for WT hTA1 (hTA1 [2]; M = -7.522): 9.298 and 11.492 and 8.12 and 4.167 and 4.444 and 4.799
- Normalized Luminescence Counts for WT hTA1 (hTA1 [2]; M = -8): 9.298 and 7.236 and 9.822 and 3.732 and 3.653 and 4.048
- Normalized Luminescence Counts for WT hTA1 (hTA1 [2]; M = -8.522): 4.387 and 5.369 and 8.578 and 1.7177 and 3.258 and 2.5868
- Normalized Luminescence Counts for WT hTA1 (hTA1 [2]; M = -9): 3.339 and 1.604 and 3.176 and 2.073 and 0.9671 and 0.7301
- Normalized Luminescence Counts for WT hTA1 (hTA1 [2]; M = -9.522): 0.589 and 1.473 and 1.408 and 0.01898 and -0.2575 and -0.4946
- Normalized Luminescence Counts for WT hTA1 (hTA1 [2]; M = -10): 1.702 and 0.2289 and 0.1307 and -0.9291 and -0.09953 and -0.2971
- Normalized Luminescence Counts for WT hTA1 (hTA1 [2]; M = -10.522): 0.6218 and 0.8182 and -0.295 and -1.285 and -0.7316 and -1.364
- Normalized Luminescence Counts for WT hTA1 (hTA1 [2]; M = -11): -0.2622 (2×) and -0.5897 and 0.335 and 0.177 and -0.02052
- Normalized Luminescence Counts for WT hTA1 (hTA1 [2]; M = -11.522): 0.06517 and 0.3926 and -0.09854 and -0.1785 (2×) and 0.09799
- Normalized Luminescence Counts for WT hTA1 (hTA1 [2]; M = -12): 0.1307 and 0.5563 and -0.6551 and -0.6131 and 0.256 and 0.2955
- Normalized Luminescence Counts for WT hTA1 (hTA1 [2]; M = -12.522): -0.2295 and 0.1307 and -0.1313 and 0.6906 and 0.8486 and -0.6921

Compound: NCCc1ccccc1 [bPEA]
- Normalized Luminescence Counts for WT hTA1 (hTA1 [2]; M = -5): 114.55 and 104.58 and 118.623 and 102.53 and 95.7683 and 107.085
- Normalized Luminescence Counts for WT hTA1 (hTA1 [2]; M = -5.522): 96.3904 and 87.8446 and 97.5922 and 98.0692 and 90.9789 and 92.0588
- Normalized Luminescence Counts for WT hTA1 (hTA1 [2]; M = -6): 88.2006 and 75.1148 and 94.0536 and 103.14 and 88.8658 and 89.805
- Normalized Luminescence Counts for WT hTA1 (hTA1 [2]; M = -6.522): 73.7573 and 64.299 and 91.1383 and 74.7791 and 68.7219 and 73.7461
- Normalized Luminescence Counts for WT hTA1 (hTA1 [2]; M = -7): 70.4636 and 45.5827 and 61.4726 and 66.5619 and 44.258 and 53.6961
- Normalized Luminescence Counts for WT hTA1 (hTA1 [2]; M = -7.522): 36.1467 and 21.3027 and 35.9464 and 26.7905 and 17.9158 and 22.3766
- Normalized Luminescence Counts for WT hTA1 (hTA1 [2]; M = -8): 22.727 and 16.7405 and 21.3472 and 13.3611 and 11.9525 and 11.6238
- Normalized Luminescence Counts for WT hTA1 (hTA1 [2]; M = -8.522): 4.5 and 4.523 and 5.969 and 4.393 and 2.514 and 2.6083
- Normalized Luminescence Counts for WT hTA1 (hTA1 [2]; M = -9): 1.986 and 1.318 and 1.8743 and 1.716 and 1.012 and 1.106
- Normalized Luminescence Counts for WT hTA1 (hTA1 [2]; M = -9.522): -1.063 and -1.33 and -0.4402 and -0.06817 and 0.1666 and -0.4908
- Normalized Luminescence Counts for WT hTA1 (hTA1 [2]; M = -10): -0.596 and -1.264 and -0.5515 and -0.4438 and -0.7725 and -0.6786
- Normalized Luminescence Counts for WT hTA1 (hTA1 [2]; M = -10.522): -1.3749 and -1.931 and -0.6405 and 0.0727 and -0.5847 and -1.101
- Normalized Luminescence Counts for WT hTA1 (hTA1 [2]; M = -11): -0.1286 and -1.241 and 0.2497 and 0.6362 and -0.3499 and -0.7725
- Normalized Luminescence Counts for WT hTA1 (hTA1 [2]; M = -11.522): -0.01735 and -1.575 and -0.7963 and 0.5892 and -0.3969 and -0.256
- Normalized Luminescence Counts for WT hTA1 (hTA1 [2]; M = -12): -1.353 and -1.3749 and -1.286 and 0.02574 and -0.4908 and -0.3029
- Normalized Luminescence Counts for WT hTA1 (hTA1 [2]; M = -12.522): -1.152 and -1.664 and -0.9075 and 0.5892 (2×) and 0.4483
